# Data: patent US20110300570A1, “METHOD AND SYSTEM FOR GENERATING SPATIALLY AND TEMPORALLY CONTROLLABLE CONCENTRATION GRADIENTS” (THE BRIGHAM AND WOMEN'S HOSPITAL, INC., priority 2008, published 2011)
# What was measured:
# HL-1 cells [1] = assay: Cytotoxicity testing of a stabilized toxin concentration gradient on HL-1 cells in the microfluidic channel; type: cell-based
# Procedure: HL-1 cells (Cardiac muscle cell line) were cultured with medium containing 87% Claycomb Medium, 10% Fetal Bovine Serum (FBS), 1% Penicillin/Streptomycin, 1% Norepinephrine, and 1% L-Glutamine at 37° C. in a humidified 5% CO2/95% air incubator. To enhance the cell adhesion, the bottom glass slide was coated with a mixture of extracellular matrix (0.02% gelatin (w/w) and 5 μg/mL fibronectin) after the top channel was bonded to the bottom glass slide. To seed the cells into the microfluidic device, the cells were trypsinized and seeded through the outlet port using dynamic seeding at a cell density of 2×10^6 cells mL-1 that allowed uniform cell distribution. Cells were cultured for 2 h to ensure attachment. The medium was then changed and 3 drops of 2 μL medium containing 20 mM Alpha-cypermethrin were introduced by passive pumping and a concentration gradient was established by leaving the microfluidic device in the hood for 5 min to allow for evaporation-induced backflow. The microfluidic device was then transferred to a humidified incubator where the concentration gradient of the toxin was stabilized and the cells were treated for 4 h. […] ImageJ was used to quantify the fluorescence images of live-dead staining of the cells. At least three images were used for quantification of the cell viability. […]
# HL-1 cells [2] = assay: Cytotoxicity testing with HL-1 cells seeded in a 96-well plate; type: cell-based; conditions: HL-1 cells in 96-well plate, various concentrations of toxin
# Procedure: In this example, the stabilized, spatially and temporally controllable concentration gradient technique is utilized for cytotoxicity testing. A cardiac muscle cell line (HL-1) is used to investigate the cytotoxicity of Alpha-cypermethrin, a cardiac toxin. Three drops of 2 μL medium containing 20 mM Alpha-cypermethrin were loaded consecutively into the micro-devices with HL-1 cells seeded along the channel. […] The cytotoxicity of the toxin gradient was further tested on the HL-1 cells by conducting a live-dead assay. […] According to the correlation between cell viability and morphology changes with respect to Alpha-cypermethrin concentration obtained from the toxicity testing on HL-1 cells seeded in 96-well plates, the experimental conditions used in this example established a concentration gradient of the toxin from 12.5 mM to 0 mM along the 5 cm-length channel based on the assay conducted in this example.
smiles,measurement,setting,value
CC1(C)C(C=C(Cl)Cl)C1C(=O)OC(C#N)c1cccc(Oc2ccccc2)c1 (stereo not drawn) [Alpha-cypermethrin],cell morphology along the channel,HL-1 cells [1]; HL-1 cells exposed 4 h to toxin gradient (loaded 20 mM; gradient 12.5 mM to 0 mM along 5 cm channel),more severe effects observed in the regions containing higher concentrations of toxin
same,cell viability (live-dead assay),HL-1 cells [1]; HL-1 cells exposed 4 h to toxin gradient along the channel,correlation of cell viability was found with the toxin concentration gradient
same,cell morphology,HL-1 cells [2],drastic morphological change
